According to patent US9139585B2 (Merck Sharp & Dohme Corp., priority 2011, dated 2015):
Read-outs that look alike come from different tables or passages of the source.

Assays:
hROMK (hKir1.1) = hROMK (hKir1.1) (Homo sapiens (Human), UniProt P48048); assay: Thallium Flux Assay (ROMK channel functional thallium flux, FLIPR-Tetra); assay type: cell-based
Protocol: Another ROMK functional assay makes use of the ability of thallium to permeate through open ROMK channels and increase the fluorescence of a dye previously loaded into the cells. Under control conditions, cells loaded with dye and exposed to thallium-containing medium display a time-dependent increase in fluorescence, the rate of which depends on number of functional channels. When cells are incubated in the presence of a channel inhibitor, the increase in fluorescence is attenuated in a concentration-dependent manner, and IC50 values of inhibition by compounds can be accurately determined. This assay has been established with cell lines expressing either human, or rat ROMK channels, and operates in 384-well format.
HEK293 cells stably expressing hROMK (hKir1.1) were grown at 37° C. in a 10% CO2 humidified incubator in complete growth media: Dulbecco's Modified Eagle Medium supplemented with non-essential amino acids, Penicillin/Streptomycin/Glutamine, G418 and FBS. At >80% confluency, the media was aspirated from the flask and the sample was rinsed with 10 ml Calcium/Magnesium-free PBS. […] To dislodge the cell, the side of the flask was gently banged with a hand. The cells were triturated completely and then transferred to 25 ml complete media. The sample was then centrifuged at 1,500 rpm for 6 minutes, followed by resuspension in complete growth media and then cell concentration was determined. […] Under ideal growth conditions and appropriate tissue culture practices, this cell line is stable for 40-45 passages.
FluxOR Kit Components (Invitrogen F10017)
• FluxOR™ Reagent (Component A) • FluxOR™ Assay Buffer (Component B)—10× Concentrate • PowerLoad™ Concentrate (Component C)—100× Concentrate • Probenecid (Component D)—Lyophilized sample is kept at −20° C. Water soluble, 100× after solubilization in 1 ml water. […] Store at 4° C. • Thallium sulfate (Tl2SO4) Concentrate (Component G)—50 mM in water. Store at 4° C. • DMSO (dimethyl sulfoxide, Component H)—1 ml (100%) Reagent Preparation— FluxOR Working Solutions • 1000× FluxOR™ Reagent: Reconstitute a vial of component A in 100 μl DMSO; Mix well; Store 10 μl aliquots at −20° C. • 1× FluxOR™ Assay Buffer: Dilute Component B 10-fold with water; Adjust pH to 7.4 with Hepes/NaOH; Filter and store at 4° C. • Probenecid/Assay Buffer: 100 ml of 1× FluxOR™ Assay Buffer; 1 ml of reconstituted component D; Store at 4° C. • Loading Buffer (per microplate): 10 μl 1000× FluxOR™ Reagent; 100 μl component C; 10 ml Probenecid/Assay Buffer • Compound Buffer (per microplate): 20 ml Probenecid/Assay Buffer; 0.3 mM ouabain (10 mM ouabain in water can be stored in amber bottle/aluminum foil at room temperature);
Test compound • 1× FluxOR™ Chloride-Free Buffer: Prepare 1× working solution in water. Can be stored at room temperature • Stimulant Buffer (prepared at 5× final concentration in 1× FluxOR™ Chloride-Free Buffer): 7.5 mM Thallium sulfate and 0.75 mM Potassium sulfate (to give a final assay concentration of 3 mM Thallium/0.3 mM Potassium). Store at 4° C. when not in use. If kept sterile, this solution is good for months. Assay Protocol—
The ROMK channel functional thallium flux assay is performed in 384 wells, using the FLIPR-Tetra instrument. HEK-hKir1.1 cells are seeded in Poly-D-Lysine microplates and kept in a 37° C.-10% CO2 incubator overnight. On the day of the experiment, the growth media is replaced with the FluxOR™ reagent loading buffer and incubated, protected from light, at ambient temperature (23-25° C.) for 90 min. The loading buffer is replaced with assay buffer±test compound followed by 30 min incubation at ambient temperature, where the Thallium/Potassium stimulant is added to the microplate.
• 1. Seed HEK-hKir1.1 cells (50 μl at 20,000 cells/well) in 384-well PDL coated Microplates • 2. Allow cells to adhere overnight in humidified 37° C./10% CO2 incubator • 3. Completely remove cell growth media from microplate and replace with 25 μl loading buffer • 4.

Kir1.1 (ROMK1) = Kir1.1 (ROMK1) (Homo sapiens (Human), UniProt P48048); assay: Electrophysiology Assay (whole cell voltage clamp, IonWorks Quattro); assay type: cell-based; settings: read-out: EP Assay IC50
From the text: Several assays may be used to measure functional inhibition of the ROMK channel by compounds of the instant invention. One assay that can be used is an electrophysiology assay that measures the electrical current that is generated as potassium permeates through the channel.
Block of Kir1.1 (ROMK1) currents was examined by whole cell voltage clamp (Hamill et. al. Pfluegers Archives 391:85-100 (1981)) using the IonWorks® Quattro automated electrophysiology platform (Molecular Devices, Sunnyvale, Calif.). Chinese hamster ovary cells stably expressing Kir1.1 channels were maintained in T-75 flasks in cell culture media in a humidified 10% CO2 incubator at 37° C. Prior to an experiment, Kir1.1 expression was induced by overnight incubation with 1 mM sodium butyrate. On the day of the experiment, cells were dissociated with 2.5 ml of Versene™ (Invitrogen 15040-066) for approximately 6 minutes at 37° C. and suspended in 10 ml of bath solution containing (in mM): 150 NaCl, 10 KCl, 2.7 CaCl2, 0.5 MgCl2, 5 HEPES, pH 7.4. After centrifugation, the cell pellet was resuspended in approximately 4.0 ml of bath solution and placed in the IonWorks® instrument. The intracellular solution consisted of (in mM): 80 K gluconate, 40 KCl, 20 KF, 3.2 MgCl2, 3 EGTA, 5 Hepes, pH 7.4. Electrical access to the cytoplasm was achieved by perforation in 0.13 mg/ml amphotericin B for 4 minutes. Amphotericin B (Sigma A-4888) was prepared as a 40 mg/ml solution in DMSO.
Voltage protocols and current recordings were performed using the IonWorks® HT software/hardware system. Currents were sampled at 1 kHz. No correction for liquid junction potentials was used. The test pulse, consisting of a 100 ms step to 0 mV from a holding potential of −70 mV, followed by a 100 ms voltage ramp from −70 mV to +70 mV, was applied before and after a 6 minutes compound incubation period. Test compounds were prepared by diluting DMSO stock solutions into the bath solution at 3× the final concentration and placed in the instrument in 96-well polypropylene plates. Current amplitudes were measured using the IonWorks® software. To assess compound potency, the fractional block during the voltage step to 0 mV was calculated in Microsoft® Excel (Microsoft, Redmond, Calif.), and dose-response curves were fitted with Igor Pro 4.0 (WaveMetrics, Lake Oswego, Oreg.).

[1] = HEK293 cells stably expressing hROMK (hKir1.1), read-out: Thallium Flux Assay IC50
[2] = Chinese hamster ovary cells stably expressing Kir1.1, block during voltage step to 0 mV

Chain of hROMK (hKir1.1) (P48048 whole entry): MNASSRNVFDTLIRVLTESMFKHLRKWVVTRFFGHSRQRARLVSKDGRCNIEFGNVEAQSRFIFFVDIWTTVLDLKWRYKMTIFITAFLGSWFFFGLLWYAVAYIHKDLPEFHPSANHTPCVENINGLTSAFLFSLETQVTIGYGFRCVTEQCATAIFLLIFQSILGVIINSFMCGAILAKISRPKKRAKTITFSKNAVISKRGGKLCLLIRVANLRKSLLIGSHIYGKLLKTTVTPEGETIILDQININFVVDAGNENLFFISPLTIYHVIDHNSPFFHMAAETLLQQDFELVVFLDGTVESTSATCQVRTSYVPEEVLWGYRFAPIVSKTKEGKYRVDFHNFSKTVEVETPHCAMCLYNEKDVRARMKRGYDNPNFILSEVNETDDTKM
Chain of Kir1.1 (ROMK1) (P48048 whole entry, species assumed): as the sequence (P48048 whole entry) above

Row | Compound | IC50 (hROMK (hKir1.1); Thallium Flux Assay IC50) | IC50 (Kir1.1 (ROMK1)) | IC50 (hROMK (hKir1.1); [1]) | IC50 (Kir1.1 (ROMK1); [2])
1 | Cc1c([C@@H](O)CN2C3COCC2CN(CCc2ccc4c(c2)C[C@H](C)OC4=O)C3)ccc2c1COC2=O [Example 22, (S)-6-(2-(9-((R)-2-Hydroxy-2-(4-methyl-1-oxo-1,3-dihydroisobenzofuran-5-yl)ethyl)-3-oxa-7,9-diazabicyclo[3.3.1]nonan-7-yl)ethyl)-3-methylisochroman-1-one] | 42.7 nM | 32 nM | – | –
2 | Cc1c([C@@H](O)CN2CCN(CCc3ccc4c(c3)C[C@@H](C)OC4=O)CC2)ccc2c1COC2=O [Example 28, 4-[(2R)-2-Hydroxy-2-(4-methyl-1-oxo-1,3-dihydro-2-benzofuran-5-yl)ethyl]-1-{2-[(3R)-3-methyl-1-oxo-3,4-dihydro-1H-isochromen-6-yl]ethyl}piperazine] | – | – | 22 nM | 33 nM
3 | Cc1c([C@H](O)CN2CCN(CCc3ccc4c(c3)C[C@@H](C)OC4=O)CC2)ccc2c1COC2=O [Example 29, (R)-6-(2-(4-((S)-2-Hydroxy-2-(4-methyl-1-oxo-1,3-dihydroisobenzofuran-5-yl)ethyl)piperazin-1-yl)ethyl)-3-methylisochroman-1-one] | – | – | 185 nM | 145 nM
4 | Cc1c([C@@H](O)CN2CCN(CCc3ccc4c(c3)CCOC4=O)CC2)ccc2c1COC2=O [Example 30, (R)-6-(2-(4-(2-Hydroxy-2-(4-methyl-1-oxo-1,3-dihydroisobenzofuran-5-yl)ethyl)piperazin-1-yl)ethyl)isochroman-1-one] | – | – | 56 nM | 21 nM
5 | Cc1c([C@H](O)CN2CCN(CCc3ccc4c(c3)CCOC4=O)CC2)ccc2c1COC2=O [Example 31, (S)-6-(2-(4-(2-Hydroxy-2-(4-methyl-1-oxo-1,3-dihydroisobenzofuran-5-yl)ethyl)piperazin-1-yl)ethyl)isochroman-1-one] | – | – | 318 nM | 564 nM
6 | CCc1c(C(O)CN2CCN(CCc3ccc4c(c3)CCOC4=O)CC2)ccc2c1COC2=O (centres unmarked) [Example 32, 6-(2-(4-(2-(4-Ethyl-1-oxo-1,3-dihydroisobenzofuran-5-yl)-2-hydroxyethyl)piperazin-1-yl)ethyl)isochroman-1-one] | – | – | 71 nM | 46 nM
7 | O=C1OCCc2cc(CCN3CCN(CC(O)c4ccc5c(c4C(F)(F)F)COC5=O)CC3)ccc21 (centres unmarked) [Example 33, 6-(2-(4-(2-Hydroxy-2-(1-oxo-4-(trifluoromethyl)-1,3-dihydroisobenzofuran-5-yl)ethyl)piperazin-1-yl)ethyl)isochroman-1-one] | – | – | 293 nM | 38 nM
